Source: patent publication US20030175319A1, “Method for controlling termite” (SUMITOMO CHEMICAL COMPANY, LIMITED, priority 2002, published 2003)

Tests used:
[1] = tested on: Formosan subterranean termites (Coptotermes formosanus); assay: Test Example 1: mortality of termites released in a plastic cup with the sheet formulation; format: in vivo; settings: for Mortality (%): 2.5 g sheet formulation, 100 termites
Protocol: The sheet formulation obtained in Formulation example 1 or 2 (2.5 g) was put in a plastic cup (8.5 cm in diameter). The plastic cup was set inside a large cup having wet cotton for supplying moisture and 100 Formosan subterranean termites (Coptotermes formosanus) were released in the plastic cup. After 2, 4 and 8 weeks, the mortality of the termites was observed. Further, the same sheet formulation as Formulation example 2 except that hexaflumuron was used in place of bistrifluron was tested for reference.

[2] = tested on: Formosan subterranean termites; assay: Test Example 2: field test, sheet formulation buried at tree stumps damaged by termites; format: in vivo, Coptotermes formosanus; settings: conclusion from Table 2
Description: In a place termites inhabit, two tree stumps (A and B) damaged by Formosan subterranean termites were found. The distance between A and B is about 500 m. Two wooden blocks (φ75 mm×78 mm) were buried near A and B, respectively.
After all the wooden blocks were damaged by the termites, each of about 60 g of the sheet formulation obtained in Formulation example 2 was buried in place of the damaged wooden blocks at A. On the other hand, the same sheet formulation as Formulation example 2 except that hexaflumuron was used in place of bistrifluron was used at B. Further, two of the sheet formulation were added at A and B respectively, after two weeks. […]
Soldiers are usually in their colony. At emergency, soldiers are observed.

O=C(NC(=O)c1c(F)cccc1F)Nc1cc(Cl)c(OC(F)(F)C(F)F)c(Cl)c1 [Hexaflumuron, 1-[3,5-dichloro-4-(1,1,2,2-tetrafluoroethoxy)phenyl]-3-(2,6-difluorobenzoyl)urea]
Mortality (%) ([1]; after 2 weeks): 5%
Mortality (%) ([1]; after 4 weeks): 34%
Mortality (%) ([1]; after 8 weeks): 100%

O=C(NC(=O)c1c(F)cccc1F)Nc1cc(C(F)(F)F)cc(C(F)(F)F)c1Cl [bistrifluron, N-[2-chloro-3,5-bis(trifluoromethyl)phenyl]-N′-(2,6-difluorobenzoyl)urea]
rapidity of efficacy compared with hexaflumuron ([1]; conclusion from Table 1): more rapid efficacy than hexaflumuron
rapidity of efficacy compared with hexaflumuron [2]: more rapid efficacy than hexaflumuron
